Patent US12153056B2, “Compositions for and methods of diagnosing, prognosing, and treating diabetes” (Washington University, priority 2019, dated 2024)
Entries after “also recorded” stand apart in the source; their conditions may differ. Bridge positions count the residues as written; N and C are the ends. Ends that are not written are not given here.

Legend:
[1] = tested on: B:13-21-specific IIT-3 and B:12-20-specific 9B9 T cell hybridoma; test: T cell hybridoma responses to C3g7 APCs treated with or without chloroquine and pulsed with antigens; assay type: cell-based; details: C3g7 APCs with or without 100 μM chloroquine for 2 h
Method: (§1) In FIG. 5i, ConA-stimulated peritoneal macrophages were treated with 0.2 or 1 μM S961 for 1 h at 37° C. and were then cultured with the IIT-3 T cell hybridoma that recognizes the 13-21 peptide, in the presence of serially diluted insulin (19278; Sigma). In FIG. 6e, C3g7 cells were treated with chloroquine for 2 h at 37° C., washed, pulsed with the antigens, and cultured with T cell hybridomas. After incubation for 18 h, the culture supernatants were assayed for IL-2 production.

[2] = tested on: 10E11 CD4 T cells; test: Two-photon motility assay of anti-HEL 10E11 T cells in mice given HEL; assay type: in vivo, NOD mice; details: inguinal lymph nodes, day 3 post transfer, indicated amounts of HEL
Method: (§2) CFSE- or CMTMR-labelled T cells were mixed 1:1 and were injected intravenously. For all the two-photon experiments, 2×10^6 T cells with either label were transferred. […] All the recipient mice were 3-4-week-old female mice unless otherwise mentioned. For experiments in FIG. 4f, FACS-sorted 8F10 T cells from pooled iLNs of 8-10 NOD or B16A mice were adoptively transferred intravenously into 4-6-week old NOD. Rag1÷ recipients (10^5 cells per mouse).
Lymph nodes were removed, attached to coverslips, placed in CO2-independent medium (Gibco) at room temperature and immediately imaged in a perfusion chamber to simulate blood flow (36.5° C. DMEM; 95% O2 and 5% CO2). Two-photon microscopy images were collected using a customized Leica SP8 Two-Photon Microscope (Leica Microsystems) equipped with a 25× and 0.95 numerical aperture water-immersion objective and a Mai Tai HP DeepSee Laser (Spectra-Physics) tuned to 840 nm. Fluorescence emission was guided directly to external hybrid photodetectors (Leica/Hamamatsu). […]
(§3) For cell tracking, two or three regions of one lymph node were randomly selected and cropped. […] We also calculated the meandering index and the motility coefficient for each track. […] The mean track velocities (μm/min) were calculated for individual tracks as previously described^11.

[3] = molecular target: T1, insulin receptor (Mus musculus, UniProt P15208); test: In vivo blockade of insulin receptor by S961 infusion via osmotic pump, blood glucose; set-up: from tissue; host or cells: whole animal (NOD mice), in vivo; details: S961 20 nMol/week via osmotic pump, 3-week old NOD mice, versus PBS
Method: The S961 peptide ([…] (SEQ ID NO: 33)) was synthesized by LifeTein, with an intrachain disulphide bridge between Cys33 and Cys40 (underlined). S961 (20 nMol/week) or control PBS was filled into the Alzet osmotic pump (2001 model, Durect) and inserted subcutaneously in the back of anaesthetized mice through an incision between scapula. Blood glucose levels were monitored twice a day (Chemstrip 2GP; Roche); mice with a level above 250 mg/dl for two consecutive measurements were considered diabetic.

[4] = molecular target: T1, insulin receptor; test: Antigen presentation assay: ConA-activated peritoneal macrophages treated with S961, insulin pulse, IIT-3 T cell hybridoma; assay type: cell-based; set-up: endogenous in cells; host or cells: ConA-stimulated peritoneal macrophages; details: 0.2 or 1 μM S961 for 1 h before insulin; IIT-3 hybridoma, IL-2 production
Method: as §1

[5] = molecular target: T1, insulin receptor; test: Two-photon imaging motility assay of transferred T cells in lymph nodes of mice infused with S961 or PBS; assay type: in vivo, NOD mice; set-up: from tissue; host or cells: whole animal (NOD mice), in vivo; details: S961 infusion versus PBS, day 3 post transfer
Method: as §2
Lymph nodes were removed, attached to coverslips, placed in CO2-independent medium (Gibco) at room temperature and immediately imaged in a perfusion chamber to simulate blood flow (36.5° C. DMEM; 95% O2 and 5% CO2). […] Fluorescence emission was guided directly to external hybrid photodetectors (Leica/Hamamatsu). […]
as §3
The S961 peptide ([…] (SEQ ID NO: 33)) was synthesized by LifeTein, with an intrachain disulphide bridge between Cys33 and Cys40 (underlined). […] Blood glucose levels were monitored twice a day (Chemstrip 2GP; Roche); mice with a level above 250 mg/dl for two consecutive measurements were considered diabetic.

[6] = tested on: I-A^g7-expressing APCs; test: Intravenous injection of Alexa Fluor 488-conjugated B:9-23, binding to splenic and thymic APCs by flow cytometry; assay type: in vivo, mice; details: 100 μg intravenously, one hour later
Method: FIG. 11a-FIG. 11c: Characterization of circulating B:9-23 and its localization into lymphoid organs. a, Unmodified synthetic B:9-23 (3 pmol) was spiked into 1 ml PBS, purified using C18 tips, lyophilized, and analyzed by nLC-MS/MS. […] An hour later, spleens and thymi were harvested, digested with liberase and DNase, and binding to splenic and thymic APCs was measured by flow cytometry. b, Representative FACS plots showing the binding of B:9-23 to splenic XCR1^+ and Sirpα^+ dendritic cell (DC) subsets and B cells (top). The bar graph summarizes cumulative results from individual mice (each point), pooled from three independent experiments. ns, not significant; **P<0.05; ***P<0.01; ****P<0.005, two-tailed unpaired Student's t-test. c, Representative FACS plots showing the binding of B:9-23 to thymic XCR1^+ and Sirpα^+ DC subsets and to CD45^− cells expressing MHCII. Data are mean±S.D from five individual mice per strain from two independent experiments.

T1 sequence (P15208 28-748 limits assumed): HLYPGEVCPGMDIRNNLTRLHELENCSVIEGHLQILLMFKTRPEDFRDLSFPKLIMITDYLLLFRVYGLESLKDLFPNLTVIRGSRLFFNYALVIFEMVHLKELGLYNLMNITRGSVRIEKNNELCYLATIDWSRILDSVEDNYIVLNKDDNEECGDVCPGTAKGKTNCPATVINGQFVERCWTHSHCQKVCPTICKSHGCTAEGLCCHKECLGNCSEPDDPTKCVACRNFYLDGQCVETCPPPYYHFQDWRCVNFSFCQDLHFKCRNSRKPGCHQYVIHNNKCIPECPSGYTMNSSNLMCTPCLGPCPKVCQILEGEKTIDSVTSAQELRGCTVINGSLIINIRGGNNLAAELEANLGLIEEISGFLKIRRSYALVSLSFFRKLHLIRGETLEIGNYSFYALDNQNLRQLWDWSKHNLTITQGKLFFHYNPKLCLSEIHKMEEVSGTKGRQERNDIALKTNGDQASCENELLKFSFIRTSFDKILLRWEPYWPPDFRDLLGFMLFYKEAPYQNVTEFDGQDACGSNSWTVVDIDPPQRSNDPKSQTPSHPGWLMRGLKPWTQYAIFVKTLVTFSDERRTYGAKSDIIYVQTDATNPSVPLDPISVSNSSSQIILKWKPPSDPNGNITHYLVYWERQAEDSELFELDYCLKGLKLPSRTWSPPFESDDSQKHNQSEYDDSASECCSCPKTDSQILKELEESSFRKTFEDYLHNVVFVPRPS
T1 sequence (P15208 753-1372 partner limits assumed): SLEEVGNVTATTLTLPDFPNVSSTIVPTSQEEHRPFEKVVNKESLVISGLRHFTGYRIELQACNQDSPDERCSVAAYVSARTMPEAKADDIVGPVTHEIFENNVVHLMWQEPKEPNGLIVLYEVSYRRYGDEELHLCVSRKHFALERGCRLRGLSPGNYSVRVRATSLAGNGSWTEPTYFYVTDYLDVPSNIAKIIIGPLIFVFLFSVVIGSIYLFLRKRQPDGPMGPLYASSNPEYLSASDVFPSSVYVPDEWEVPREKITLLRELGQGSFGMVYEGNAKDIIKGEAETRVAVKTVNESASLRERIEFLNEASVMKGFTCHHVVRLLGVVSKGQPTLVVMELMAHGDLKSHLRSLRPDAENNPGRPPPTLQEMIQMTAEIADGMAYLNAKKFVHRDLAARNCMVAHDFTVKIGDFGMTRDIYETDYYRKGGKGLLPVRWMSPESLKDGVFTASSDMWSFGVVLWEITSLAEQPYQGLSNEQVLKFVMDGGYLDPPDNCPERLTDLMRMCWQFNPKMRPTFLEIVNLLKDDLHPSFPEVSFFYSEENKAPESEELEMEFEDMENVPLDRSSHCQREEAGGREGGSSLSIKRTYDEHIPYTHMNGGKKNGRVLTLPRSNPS

Q: With “B:9-23: insulin B-chain peptide, segment 9-23 (SHLVEALYLVCGERG)” as the substance, how does the “need for internal processing for T cell reactivity” value [1] read?
A: not to B:9-23 or B:1-30 require internal processing

Q: Which “10E11 T cell velocities” value [2] does the source give for “HEL: hen egg lysozyme, control antigen recognized by 10E11 CD4 T cells” here?
A: progressive reduction of the 10E11 T cell velocities as the antigen amount increases

Q: For “S961: insulin receptor antagonist peptide GSLDESFYDWFERQLGGGSGGSSLEEEWAQIQCEVWGRGCPSY (SEQ ID NO: 33), synthesized by LifeTein (disulfide 33-40; listed as Mus musculus)”, which blood glucose levels [3] is on record?
A: sustained increase in blood glucose levels

Q: What about the “ability of ConA-activated macrophages to present insulin” value [4] of the same substance?
A: impaired

Q: And the “motility arrest of 8F10 T cells” value [5]?
A: remained at a comparable level; also recorded: comparable level of motility arrest

Q: What about the “reduction in mean velocity (motility) of transferred 4F7 T cells” value [5] of the same substance?
A: the magnitude of the reduction was significantly smaller than with PBS; also recorded: partial reduction of the 4F7 T cell motility

Q: “fluorochrome-labelled B:9-23: Alexa Fluor 488-conjugated B:9-23 peptide (SHLVEALYLVCGERG; also: Alexa Fluor 488-conjugated (position not given here))” was tested. Which “display by APCs in spleen” value [6] did it give?
A: rapidly displayed by I-A^g7-expressing APCs in spleen

Q: What about the “display by APCs in thymus” value [6] of the same substance?
A: not in thymus

Q: How did the “need for internal processing for T cell reactivity” value [1] turn out when “insulin: insulin (19278; Sigma) used as antigen” was run?
A: require internal processing
